We go through four molecules from paper PMC2679375 (Journal of medicinal chemistry, 2008).

The structures appear in SMILES notation.

One data set in a line: in vivo. Particulars: rat, po.
The next data set addresses cIAP-2 (Homo sapiens, UniProt Q13489). The data set can be described thus: FP-based competitive binding assay for cIAP-2. The conditions noted are these: relative to compound 2.
The next data set has as its target XIAP BIR3 (Homo sapiens, UniProt P98170). Briefly: Competitive fluorescence polarization-based XIAP binding assay. Particulars: relative to compound 2. A general note: In fluorescence polarisation assays a small probe gives low polarisation when free and higher when bound to something large.
The next data set in a line: Aqueous solubility. The data set is classed as physicochemical.
Data set [1] concerns MDA-MB-231 cancer cell line. The conditions noted are these: within 24-hour treatment.

XIAP BIR3, sequence (P98170 241-356 limits assumed): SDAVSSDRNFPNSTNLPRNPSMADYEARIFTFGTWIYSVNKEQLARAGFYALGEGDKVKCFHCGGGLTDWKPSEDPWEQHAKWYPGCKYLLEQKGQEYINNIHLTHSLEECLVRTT
cIAP-2, sequence (Q13489 whole entry): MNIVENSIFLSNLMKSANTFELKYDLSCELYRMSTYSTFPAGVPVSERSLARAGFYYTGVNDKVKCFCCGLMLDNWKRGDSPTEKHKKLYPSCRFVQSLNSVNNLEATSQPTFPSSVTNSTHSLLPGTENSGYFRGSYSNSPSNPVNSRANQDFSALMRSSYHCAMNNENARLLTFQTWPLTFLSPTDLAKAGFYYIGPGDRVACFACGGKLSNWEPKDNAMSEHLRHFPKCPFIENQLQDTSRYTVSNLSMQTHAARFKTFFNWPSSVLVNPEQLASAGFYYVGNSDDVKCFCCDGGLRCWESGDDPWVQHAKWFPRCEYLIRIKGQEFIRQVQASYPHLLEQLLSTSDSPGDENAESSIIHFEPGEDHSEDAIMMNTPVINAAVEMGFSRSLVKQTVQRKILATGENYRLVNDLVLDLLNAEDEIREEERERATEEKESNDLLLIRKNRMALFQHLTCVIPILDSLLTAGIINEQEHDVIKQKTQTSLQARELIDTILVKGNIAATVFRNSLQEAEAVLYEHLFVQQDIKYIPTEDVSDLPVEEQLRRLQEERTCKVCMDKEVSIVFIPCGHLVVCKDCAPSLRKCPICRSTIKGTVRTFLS

A word on the AUC(0-inf): it is the area under the concentration-time curve extrapolated to infinity. A high value points to high exposure. The molecule `CN[C@@H](C)C(=O)N[C@H]1CCCC[C@H]2CC[C@@H](C(=O)NC(c3ccccc3)c3ccccc3)N2C1=O` [Compound 1] had an AUC(0-inf) in “in vivo” (25 mg/kg) of 482 ± 92 ng·h/mL.

As to `CN[C@@H](C)C(=O)N[C@H]1CN(C)CC[C@H]2CC[C@@H](C(=O)NC(c3ccccc3)c3ccccc3)N2C1=O` [Compound 3, (5S,8S,10aR)-N-benzhydryl-3-methyl-5-((S)-2-(methylamino)propanamido)-6-oxodeca-hydro pyrrolo[1,2-a][1,5]diazocine-8-carbox-amide], at cIAP-2, the “times weaker than 2 in binding to cIAP-2” value is recorded as 2-3 times. Further, the “times weaker than compound 2 in binding to XIAP BIR3” value at XIAP BIR3 was 4-17 times.

As for `CN[C@@H](C)C(=O)N[C@H]1CN(Cc2ccccc2)CC[C@H]2CC[C@@H](C(=O)NC(c3ccccc3)c3ccccc3)N2C1=O` [Compound 4, (5S,8S,10aR)-N-benzhydryl-3-benzyl-5-((S)-2-(methylamino)propanamido)-6-oxodeca-hydropyrrolo[1,2-a][1,5]diazocine-8-carbox-amide], the “times weaker than 2 in binding to cIAP-2” value at cIAP-2 is listed as 2-3 times. Also, at XIAP BIR3, the “times weaker than compound 2 in binding to XIAP BIR3” value is reported as 4-17 times.

For the molecule `CN[C@@H](C)C(=O)N[C@H]1CN(C(=O)Cc2ccccc2)CC[C@H]2CC[C@@H](C(=O)NC(c3ccccc3)c3ccccc3)N2C1=O` [Compound 6, (5S,8S,10aR)-N-Benzhydryl-5-((S)-2-(methyl-amino)propanamido)-6-oxo-3-(2-phenyl-acetyl)decahydro pyrrolo[1,2-a][1,5]diazo-cine-8-carboxamide], the “aqueous solubility (in words)” value in the data set “Aqueous solubility” is recorded as “excellent aqueous solubility”. Moreover, the “concentration that effectively induces apoptosis” value in data set [1] worked out at 100 nM. Further, the AUC(0-inf) in “in vivo” (30 mg/kg) was 1980 ± 614 ng·h/mL.
